Reference: paper PMC3183320 (Protein expression and purification, 2011)
Entries after “also recorded” stand apart in the source; their conditions may differ.

Assays:
[1] = target: T1, BPV1 E6 (Bovine papillomavirus type 1, UniProt P06931); assay: SPR; type: binding
[2] = target: T1, BPV1 E6; type: physicochemical; conditions: peptide provided during BPV1 E6 biosynthesis
[3] = target: HPV16 E6; conditions: read-out: affinity of HPV16 E6 / E6AP; ref [29]; cited from earlier work
[4] = target: T2, BPV1 E6 released from MBP-LXXLL-tevs-E6 by TEV protease (Bovine Papillomavirus Type 1, UniProt P06931 1-137); assay: SEC
T2 sequence: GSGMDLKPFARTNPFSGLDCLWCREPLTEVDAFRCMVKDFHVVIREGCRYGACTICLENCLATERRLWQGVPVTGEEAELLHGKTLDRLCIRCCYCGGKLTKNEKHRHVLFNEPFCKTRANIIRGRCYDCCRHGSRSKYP

[5] = target: T3, paxillin LXXLL peptide (Homo sapiens, UniProt P49023); assay: SPR
T3 chain: MDDLDALLADLESTT

DDLDALLADKE [paxillin]
dissociation phase (in words) ([1]; SPR sensorgrams, paxillin as compared to E6AP): remarkably slow dissociation phase; also recorded: slow dissociation rate kinetics | affinity for BPV1 E6 (in words) ([1]; SPR, as compared to other E6/peptide interactions): significantly higher affinity as compared to other E6/peptide interactions; also recorded: significantly stronger; also recorded: high affinity

EFTMDDLDALLADKE [paxillin LXXLL peptide]
effect on BPV1 E6 protein solubility (in words) [2]: greatly enhanced the protein’s solubility

ESSELTLQELLGEER [E6AP]
Kd [3]: 4 µM

EFTMDDLDALLADKE [synthetic peptide derived from paxillin (LXXLL synthetic peptide)]
binding result [4]: binds

B1: E6 (protein)
chain: MDLKPFARTNPFSGLDCLWCREPLTEVDAFRCMVKDFHVVIREGCRYGACTICLENCLATERRLWQGVPVTGEEAELLHGKTLDRLCIRCCYCGGKLTKNEKHRHVLFNEPFCKTRANIIRGRCYDCCRHGSRSKYP
Kd [5]: 35.1 nM

MDDLDALLADGGSGSNENLYFQ [MBP-fused LXXLL peptide (MBP-LXXLL-tevs left after TEV digestion of MBP-LXXLL-tevs-E6)]
binding result [4]: binds
